Data reported in PMC6979384, “Characterization of the plant homeodomain (PHD) reader family for their histone tail interactions” (Epigenetics & Chromatin, 2020).

Legend:
Test in all cases: Histone peptide microarray
Type in all cases: binding, human
CHD5 (PCC) = conditions: sheet "Array Heatmap"; GST-tagged CHD5 (PCC); arrays performed twice, total replicate number n = 4
In short: (§1)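 GST-tagged PHD finger readers were expressed, purified and applied at 0.5 μM to a microarray of 293 synthetic histone peptides carrying single or combinatorial PTMs, using an optimized protocol. Binding signals are averages with standard deviation from 4 replicates.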

KDM7A = conditions: sheet "Array Heatmap"; GST-tagged KDM7A; arrays performed twice, total replicate number n = 4
In short: as §1

TRIM66 (PB) = conditions: sheet "Array Heatmap"; GST-tagged TRIM66 (PB); arrays performed twice, total replicate number n = 4
In short: as §1

DPF2 (PPC2W2) = conditions: sheet "Array Heatmap"; GST-tagged DPF2 (PPC2W2); arrays performed twice, total replicate number n = 4
In short: as §1

TAF3 = conditions: sheet "Array Heatmap"; GST-tagged TAF3; arrays performed twice, total replicate number n = 4
In short: as §1

PHF13 = conditions: sheet "Array Heatmap"; GST-tagged PHF13; arrays performed twice, total replicate number n = 4
In short: as §1

SP140L = conditions: sheet "Array Heatmap"; GST-tagged SP140L; arrays performed twice, total replicate number n = 4
In short: as §1

PHF2 = conditions: sheet "Array Heatmap"; GST-tagged PHF2; arrays performed twice, total replicate number n = 4
In short: as §1

MLL5 = conditions: sheet "Array Heatmap"; GST-tagged MLL5; arrays performed twice, total replicate number n = 4
In short: as §1

BAZ2B = conditions: sheet "Array Heatmap"; GST-tagged BAZ2B; arrays performed twice, total replicate number n = 4
In short: as §1

KDM5A (3) = conditions: sheet "Array Heatmap"; GST-tagged KDM5A (3); arrays performed twice, total replicate number n = 4
In short: as §1

ING5 = conditions: sheet "Array Heatmap"; GST-tagged ING5; arrays performed twice, total replicate number n = 4
In short: as §1

KDM5B (3) = conditions: sheet "Array Heatmap"; GST-tagged KDM5B (3); arrays performed twice, total replicate number n = 4
In short: as §1

ING1 = conditions: sheet "Array Heatmap"; GST-tagged ING1; arrays performed twice, total replicate number n = 4
In short: as §1

CHD4 (PPCC) = conditions: sheet "Array Heatmap"; GST-tagged CHD4 (PPCC); arrays performed twice, total replicate number n = 4
In short: as §1

CHD5 (PPCC) = conditions: sheet "Array Heatmap"; GST-tagged CHD5 (PPCC); arrays performed twice, total replicate number n = 4
In short: as §1

MORC3 (CW) = conditions: sheet "Array Heatmap"; GST-tagged MORC3 (CW); arrays performed twice, total replicate number n = 4
In short: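 Purified PHD finger domains fused to GST are screened against 293 synthetic histone peptides bearing one or several post-translational modifications. The protein is used at 0.5 μM, and the signal from four replicate arrays is averaged, with standard deviation given.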

KDM5A (1) = conditions: sheet "Array Heatmap"; GST-tagged KDM5A (1); arrays performed twice, total replicate number n = 4
In short: as §1

AIRE (PP) = conditions: sheet "Array Heatmap"; GST-tagged AIRE (PP); arrays performed twice, total replicate number n = 4
In short: as §1

RAG2 = conditions: sheet "Array Heatmap"; GST-tagged RAG2; arrays performed twice, total replicate number n = 4
In short: as §1

PHRF1 (RP) = conditions: sheet "Array Heatmap"; GST-tagged PHRF1 (RP); arrays performed twice, total replicate number n = 4
In short: as §1

PHF21A = conditions: sheet "Array Heatmap"; GST-tagged PHF21A; arrays performed twice, total replicate number n = 4
In short: as §1

ING3 = conditions: sheet "Array Heatmap"; GST-tagged ING3; arrays performed twice, total replicate number n = 4
In short: as §1

ING2 = conditions: sheet "Array Heatmap"; GST-tagged ING2; arrays performed twice, total replicate number n = 4
In short: as §1

DIDO1 = conditions: sheet "Array Heatmap"; GST-tagged DIDO1; arrays performed twice, total replicate number n = 4
In short: as §1

BPTF (PB) = conditions: sheet "Array Heatmap"; GST-tagged BPTF (PB); arrays performed twice, total replicate number n = 4
In short: as §1

ING4 = conditions: sheet "Array Heatmap"; GST-tagged ING4; arrays performed twice, total replicate number n = 4
In short: as §1

KDM5B (1) = conditions: sheet "Array Heatmap"; GST-tagged KDM5B (1); arrays performed twice, total replicate number n = 4
In short: as §1

PHF8 = conditions: sheet "Array Heatmap"; GST-tagged PHF8; arrays performed twice, total replicate number n = 4
In short: as §1

PHF23 = conditions: sheet "Array Heatmap"; GST-tagged PHF23; arrays performed twice, total replicate number n = 4
In short: as §1

KDM4C (TTP) = conditions: sheet "Array Heatmap"; GST-tagged KDM4C (TTP); arrays performed twice, total replicate number n = 4
In short: as §1

In the case of H3.3K27me2 + S28p: H3.3 15-34, the “Array Heatmap signal, CHD5 (PCC)” value (CHD5 (PCC)) is reported as 0.7282, the “Array Heatmap signal, KDM7A” value (KDM7A) is reported as 0.3322 and the “Array Heatmap signal, TRIM66 (PB)” value (TRIM66 (PB)) is reported as 0.5871. The “Array Heatmap signal, DPF2 (PPC2W2)” value (DPF2 (PPC2W2)) was 0.6352, the “Array Heatmap signal, TAF3” value (TAF3) was 0.2725 and the “Array Heatmap signal, PHF13” value (PHF13) was 0.6326. The “Array Heatmap signal, SP140L” value (SP140L) was 0.3521, the “Array Heatmap signal, PHF2” value (PHF2) was 0.5406 and the “Array Heatmap signal, MLL5” value (MLL5) was 0.548. For the same substance, the “Array Heatmap signal, BAZ2B” value (BAZ2B) was 0.4685, the “Array Heatmap signal, KDM5A (3)” value (KDM5A (3)) was 0.4997 and the “Array Heatmap signal, ING5” value (ING5) was 0.3515. For the same substance, the “Array Heatmap signal, KDM5B (3)” value (KDM5B (3)) was 0.4734, the “Array Heatmap signal, ING1” value (ING1) was 0.5375 and the “Array Heatmap signal, CHD4 (PPCC)” value (CHD4 (PPCC)) was 0.6277. The “Array Heatmap signal, CHD5 (PPCC)” value (CHD5 (PPCC)) was 0.5567, the “Array Heatmap signal, MORC3 (CW)” value (MORC3 (CW)) was 0.3408 and the “Array Heatmap signal, KDM5A (1)” value (KDM5A (1)) was 0.4568. For the same substance, the “Array Heatmap signal, AIRE (PP)” value (AIRE (PP)) was 0.3996, the “Array Heatmap signal, RAG2” value (RAG2) was 0.2608 and the “Array Heatmap signal, PHRF1 (RP)” value (PHRF1 (RP)) was 0.4333. For the same substance, the “Array Heatmap signal, PHF21A” value (PHF21A) was 0.4472, the “Array Heatmap signal, ING3” value (ING3) was 0.4796 and the “Array Heatmap signal, ING2” value (ING2) was 0.6211. For the same substance, the “Array Heatmap signal, DIDO1” value (DIDO1) was 0.6639, the “Array Heatmap signal, BPTF (PB)” value (BPTF (PB)) was 0.3515 and the “Array Heatmap signal, ING4” value (ING4) was 0.4488. The “Array Heatmap signal, KDM5B (1)” value (KDM5B (1)) was 0.6269, the “Array Heatmap signal, PHF8” value (PHF8) was 0.3445 and the “Array Heatmap signal, PHF23” value (PHF23) was 0.5303. For the same substance, the “Array Heatmap signal, KDM4C (TTP)” value (KDM4C (TTP)) was 0.4645.
